Molecular target: T1, human GABA A receptor α5β3γ2 (Homo sapiens, UniProt P18507+P31644)
T1 construct: expressed in transfected cells; host or cells: HEK293 (transiently transfected), membrane preparation
Test: [3H]flumazenil competition binding assay, human GABA A α5 receptor
Settings: human α5β3γ2 receptors transiently transfected in HEK293 cells; displacement of [3H]flumazenil 0.5 nM; 1 hour at 4° C.; means of two determinations; read-out: hKi GABA A α5
Experimental: Membrane Preparation and Binding Assay
The affinity of compounds at GABA A receptor subtypes was measured by competition for [3H]flumazenil (85 Ci/mmol; Roche) binding to HEK293 cells expressing rat (stably transfected) or human (transiently transfected) receptors of composition α1β3γ2, α2β3γ2, α3β3γ2 and α5β3γ2.
Cell pellets were suspended in Krebs-tris buffer (4.8 mM KCl, 1.2 mM CaCl2, 1.2 mM MgCl2, 120 mM NaCl, 15 mM Tris; pH 7.5; binding assay buffer), homogenized by polytron for ca. 20 sec on ice and centrifuged for 60 min at 4° C. (50000 g; Sorvall, rotor: SM24=20000 rpm). The cell pellets were re-suspended in Krebs-tris buffer and homogenized by polytron for ca. 15 sec on ice. Protein was measured (Bradford method, Bio-Rad) and aliquots of 1 mL were prepared and stored at −80° C.
Radioligand binding assays were carried out in a volume of […] (96-well plates) which contained […] of cell membranes, [^3H]flumazenil at a concentration of 1 nM for α1, α2 and α3 subunits and 0.5 nM for α5 subunits and the test compound in the range of […]. Nonspecific binding was defined by 10^−5 M diazepam and typically represented less than 5% of the total binding. Assays were incubated to equilibrium for 1 hour at 4° C. and harvested onto GF/C uni-filters (Packard) by filtration using a Packard harvester and washing with ice-cold wash buffer (50 mM Tris; pH 7.5). After drying, filter-retained radioactivity was detected by liquid scintillation counting. Ki values were calculated using Excel-Fit (Microsoft) and are the means of two determinations.

Structure (SMILES) | Ki [nM]
Cc1onc(-c2ccccn2)c1COc1cc(C(=O)NC(C)C)sn1 [Example 36, 3-(5-Methyl-3-pyridin-2-yl-isoxazol-4-ylmethoxy)-isothiazole-5-carboxylic acid isopropyl-amide] | 15
Cc1onc(-c2ccccn2)c1COc1cc(C(=O)NCCO)sn1 [Example 37, 3-(5-Methyl-3-pyridin-2-yl-isoxazol-4-ylmethoxy)-isothiazole-5-carboxylic acid (2-hydroxy-ethyl)-amide] | 17.6
Cc1onc(-c2ccc(F)cn2)c1COc1cc(C(=O)NC(C)C)sn1 [Example 38, 3-[3-(5-Fluoro-pyridin-2-yl)-5-methyl-isoxazol-4-ylmethoxy]-isothiazole-5-carboxylic acid isopropylamide] | 11.8
Cc1onc(-c2ccc(F)cn2)c1COc1cc(C(=O)NCCO)sn1 [Example 39, 3-[3-(5-Fluoro-pyridin-2-yl)-5-methyl-isoxazol-4-ylmethoxy]-isothiazole-5-carboxylic acid (2-hydroxy-ethyl)-amide] | 13
CCCCc1noc(C)c1COc1cc(C(=O)NC2CCOC2)sn1 (stereo not shown) [Example 41, 3-(3-Butyl-5-methyl-isoxazol-4-ylmethoxy)-isothiazole-5-carboxylic acid (tetrahydro-furan-3-yl)-amide] | 28.9
Cc1onc(-c2ccc(F)cc2)c1COc1cc(C(=O)N2CC3(COC3)C2)on1 [Example 42, {3-[3-(4-Fluoro-phenyl)-5-methyl-isoxazol-4-ylmethoxy]-isoxazol-5-yl}-(2-oxa-6-aza-spiro[3.3]hept-6-yl)-methanone] | 9.8
O=C(NCC(F)(F)F)c1cc(OCc2c(-c3ccc(F)cc3)noc2CO)no1 [Example 45, 3-[3-(4-Fluoro-phenyl)-5-hydroxymethyl-isoxazol-4-ylmethoxy]-isoxazole-5-carboxylic acid (2,2,2-trifluoro-ethyl)-amide] | 10

Compounds with a lower Ki, results first:

Ki [nM] | Structure (SMILES)
3.8 | Cc1onc(-c2ccc(F)cn2)c1COc1cc(C(=O)NC2CCOC2)sn1 (stereo not shown) [Example 40, 3-[3-(5-Fluoro-pyridin-2-yl)-5-methyl-isoxazol-4-ylmethoxy]-isothiazole-5-carboxylic acid (tetrahydro-furan-3-yl)-amide]
8.8 | CC(C)NC(=O)c1cc(OCc2c(-c3ccc(F)cc3)noc2CO)no1 [Example 43, 3-[3-(4-Fluoro-phenyl)-5-hydroxymethyl-isoxazol-4-ylmethoxy]-isoxazole-5-carboxylic acid isopropylamide]
2.8 | O=C(NC1CCOCC1)c1cc(OCc2c(-c3ccc(F)cc3)noc2CO)no1 [Example 44, 3-[3-(4-Fluoro-phenyl)-5-hydroxymethyl-isoxazol-4-ylmethoxy]-isoxazole-5-carboxylic acid (tetrahydro-pyran-4-yl)-amide]
